We go through 21 molecules from PubChem BioAssay AID330 (DTP/NCI, 2004).

Molecules are shown by their SMILES. Several values for one entry are separate records, joined by “and”; a condition that tells them apart may be missing. Identical values can stand only once. Toxic doses and inconclusive results are not listed.

The assay concerns P388 leukemia ip, CD2F1 mice, survival T/C. Kind of assay: NCI In Vivo Anticancer Drug Screen. Data for tumor model P388 Leukemia (intraperitoneal) in CD2F1 (CDF1) mice. The conditions noted are these: endpoint: median survival time, higher = longer survival. In short, it runs like this: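 Mice carrying the transplanted tumor received test compound or vehicle. Survival was recorded in each group, and the value is the treated-group measurement divided by that of the vehicle-treated control group.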

Setting [1] is: dose: 3.13 mg/kg/injection, schedule: Q01DX009 (ip), vehicle: water.
[2] abbreviates: dose: 6.25 mg/kg/injection, schedule: Q01DX009 (ip), vehicle: saline with Tween-80.
The mark [3] stands for this setting: dose: 6.25 mg/kg/injection, schedule: Q01DX009 (ip), vehicle: water.
The mark [4] stands for this setting: dose: 12.5 mg/kg/injection, schedule: Q01DX009 (ip), vehicle: saline with Tween-80.
[5] abbreviates: dose: 12.5 mg/kg/injection, schedule: Q01DX009 (ip), vehicle: water.
Where [6] appears, read: dose: 25.0 mg/kg/injection, schedule: Q01DX009 (ip), vehicle: saline with Tween-80.
The mark [7] stands for this setting: dose: 25.0 mg/kg/injection, schedule: Q01DX009 (ip), vehicle: water.
Where [8] appears, read: dose: 50.0 mg/kg/injection, schedule: Q01DX009 (ip), vehicle: saline with Tween-80.
Setting [9] is: dose: 100.0 mg/kg/injection, schedule: Q01DX009 (ip), vehicle: saline with Tween-80.
Setting [10] is: dose: 200.0 mg/kg/injection, schedule: Q01DX009 (ip), vehicle: saline with Tween-80.
Where [11] appears, read: dose: 60.0 mg/kg/injection, schedule: Q01DX005 (ip), vehicle: saline with Tween-80.
Setting [12] is: dose: 60.0 mg/kg/injection, schedule: Q01DX005 (ip), vehicle: Klucel (hydroxypropylcellulose) (HPC).
Where [13] appears, read: dose: 120.0 mg/kg/injection, schedule: Q01DX005 (ip), vehicle: Klucel (hydroxypropylcellulose) (HPC).
The mark [14] stands for this setting: dose: 240.0 mg/kg/injection, schedule: Q01DX005 (ip), vehicle: Klucel (hydroxypropylcellulose) (HPC).
Setting [15] is: dose: 50.0 mg/kg/injection, schedule: Q01DX005 (ip), vehicle: saline with Tween-80.
Where [16] appears, read: dose: 100.0 mg/kg/injection, schedule: Q01DX005 (ip), vehicle: saline with Tween-80.
Setting [17] is: dose: 200.0 mg/kg/injection, schedule: Q01DX005 (ip), vehicle: saline with Tween-80.

For `NC(CSC(c1ccccc1)(c1ccccc1)c1ccc2ccccc2c1)C(=O)O` (stereo unspecified), the T/C is 186 % of control (dose: 3.13 mg/kg/injection, schedule: Q01DX009 (ip), vehicle: saline with Tween-80); 169 % of control under setting [1]; 198 % of control under setting [2]; 189 % of control under setting [3]; 261 % of control under setting [4]; 216 % of control under setting [5]. Besides, the T/C under setting [6] is 90 % of control and the T/C under setting [7] was 99 % of control.

For `O=C(/C=C/c1ccc(OCc2ccccc2)cc1)c1cccc(Cl)c1`, the T/C is 95 % of control under setting [2], 95 % of control under setting [4] and 93 % of control under setting [6].

Regarding `CSc1nccnn1`, the T/C (dose: 6.25 mg/kg/injection, schedule: Q01DX009 (ip), vehicle: saline) is 109 % of control; the T/C (dose: 12.5 mg/kg/injection, schedule: Q01DX009 (ip), vehicle: saline) was 115 % of control; the T/C (dose: 25.0 mg/kg/injection, schedule: Q01DX009 (ip), vehicle: saline) is 108 % of control and 116 % of control; the T/C (dose: 50.0 mg/kg/injection, schedule: Q01DX009 (ip), vehicle: saline) was 118 % of control; the T/C (dose: 100.0 mg/kg/injection, schedule: Q01DX009 (ip), vehicle: saline) is 120 % of control.

Regarding `CCCCP(=O)(CCCC)CCCC.CCCCP(=O)(CCCC)CCCC.CCCCP(=O)(CCCC)CCCC.CCCCP(=O)(CCCC)CCCC.[Ce+3].[O-][Cl+3]([O-])([O-])O`, the T/C is, setting by setting: under setting [8], 97 % of control; under setting [9], 92 % of control; under setting [10], 86 % of control.

On to `NC(CSSCC(N)C(=O)c1ccccc1)C(=O)c1ccccc1` (stereo unspecified), for which the T/C (dose: 50.0 mg/kg/injection, schedule: Q01DX005 (ip), vehicle: Klucel (hydroxypropylcellulose) (HPC)) is 98 % of control; the T/C (dose: 100.0 mg/kg/injection, schedule: Q01DX005 (ip), vehicle: Klucel (hydroxypropylcellulose) (HPC)) was 98 % of control; the T/C (dose: 200.0 mg/kg/injection, schedule: Q01DX005 (ip), vehicle: Klucel (hydroxypropylcellulose) (HPC)) was 105 % of control.

Take `O=C(Nc1ccc(C(=O)O)cc1)Oc1ccc(N(CCCl)CCCl)cc1`: the T/C was 209 % of control under setting [6]; 159 % of control under setting [8]; 200 % of control (dose: 66.0 mg/kg/injection, schedule: Q04DX003 (ip), vehicle: saline with Tween-80); 181 % of control and 200 % of control (dose: 100.0 mg/kg/injection, schedule: Q04DX003 (ip), vehicle: saline with Tween-80).

With `O=C(OC1CCCc2ccccc21)c1ccc(N=Nc2ccccc2)cc1` (stereo unspecified), the T/C by setting is: under setting [11], 95 % of control; (dose: 120.0 mg/kg/injection, schedule: Q01DX005 (ip), vehicle: saline with Tween-80) 88 % of control.

In the case of `CN(C)C(=O)Nc1ccc(-c2cccnc2)cc1`, the T/C was 109 % of control (dose: 60.0 mg/kg/injection, schedule: Q01DX005 (ip), vehicle: saline); 107 % of control (dose: 120.0 mg/kg/injection, schedule: Q01DX005 (ip), vehicle: saline); 93 % of control (dose: 240.0 mg/kg/injection, schedule: Q01DX005 (ip), vehicle: saline).

Turning to `CC1(C)N=C(NN=C2CCCCC2)SP1(=O)NCC(=O)O` (stereo unspecified), the T/C under setting [12] was 101 % of control, the T/C under setting [13] was 100 % of control and the T/C under setting [14] was 101 % of control.

On to `CN(C)CCCNC(=O)c1n[nH]c(=S)[nH]c1=O`, for which the T/C is 101 % of control under setting [15], 100 % of control under setting [16] and 95 % of control under setting [17].

In the case of `CN(C)c1ccc(N=C2C=CC(=O)C(Cl)=C2)cc1`, the T/C reads like this: (dose: 25.0 mg/kg/injection, schedule: Q01DX009 (ip), vehicle: suspension in saline) 106 % of control; (dose: 50.0 mg/kg/injection, schedule: Q01DX009 (ip), vehicle: suspension in saline) 115 % of control.

Consider `COC(=O)C1CC(C(=O)c2ccccc2)N2C=CC=C(C#N)C12` (stereo unspecified), for which the T/C is 101 % of control (dose: 4.38 mg/kg/injection, schedule: Q01DX005 (ip), vehicle: Klucel (hydroxypropylcellulose) (HPC)); 91 % of control (dose: 8.75 mg/kg/injection, schedule: Q01DX005 (ip), vehicle: Klucel (hydroxypropylcellulose) (HPC)); 101 % of control (dose: 17.5 mg/kg/injection, schedule: Q01DX005 (ip), vehicle: Klucel (hydroxypropylcellulose) (HPC)).

In the case of `COc1cc(-c2c(C)oc(C)c2C(C)=O)ccc1OCc1ccccc1`, the T/C by setting is: under setting [12], 92 % of control; under setting [13], 97 % of control; under setting [14], 91 % of control.

As to `COc1ccc(C(=O)O[C@H]2CC[C@@]3(C)[C@@H]4CC[C@H]5[C@]6(O)C[C@H](O)[C@@]7(O)[C@@H](CN8C[C@@H](C)CC[C@H]8[C@@]7(C)O)[C@]6(O)C[C@@]53OC24O)cc1OC`, the T/C is 95 % of control (dose: 3.12 mg/kg/injection, schedule: Q01DX005 (ip), vehicle: saline); 95 % of control (dose: 6.25 mg/kg/injection, schedule: Q01DX005 (ip), vehicle: saline); 97 % of control (dose: 12.5 mg/kg/injection, schedule: Q01DX005 (ip), vehicle: saline).

For `Cc1cc(CCNC=O)c(C)c2c1oc1ccccc12`, the T/C reads like this: under setting [8], 110 % of control; under setting [9], 103 % of control; under setting [10], 94 % of control; (dose: 400.0 mg/kg/injection, schedule: Q01DX009 (ip), vehicle: saline with Tween-80) 94 % of control.

As for `Clc1ccc2c(N3CCC(CCC4CCN(c5ncnc6cc(Cl)ccc56)CC4)CC3)ncnc2c1`, the T/C was 96 % of control under setting [15], 94 % of control under setting [16] and 88 % of control under setting [17].

Consider `CNc1ccc(Cl)cc1SSc1cc(Cl)ccc1NC`, for which the T/C by setting is: (dose: 50.0 mg/kg/injection, schedule: Q01DX001 (ip), vehicle: Klucel (hydroxypropylcellulose) (HPC)) 100 % of control; (dose: 100.0 mg/kg/injection, schedule: Q01DX001 (ip), vehicle: Klucel (hydroxypropylcellulose) (HPC)) 100 % of control; (dose: 200.0 mg/kg/injection, schedule: Q01DX001 (ip), vehicle: Klucel (hydroxypropylcellulose) (HPC)) 100 % of control.

Consider `O=C(C=C(C(F)(F)F)C(F)(F)F)c1ccccc1[N+](=O)[O-]`, for which the T/C runs as follows: (dose: 1.32 mg/kg/injection, schedule: Q04DX003 (ip), vehicle: other) 109 % of control; (dose: 2.0 mg/kg/injection, schedule: Q04DX003 (ip), vehicle: other) 100 % of control; (dose: 3.0 mg/kg/injection, schedule: Q04DX003 (ip), vehicle: other) 109 % of control; (dose: 4.5 mg/kg/injection, schedule: Q04DX003 (ip), vehicle: other) 104 % of control; (dose: 6.25 mg/kg/injection, schedule: Q04DX003 (ip), vehicle: other) 109 % of control; (dose: 25.0 mg/kg/injection, schedule: Q04DX003 (ip), vehicle: other) 86 % of control.

As for `O=NNc1cnc(Br)cn1`, the T/C is, setting by setting: under setting [1], 97 % of control; under setting [3], 101 % of control; under setting [5], 105 % of control and 108 % of control; under setting [7], 108 % of control and 118 % of control; (dose: 100.0 mg/kg/injection, schedule: Q01DX009 (ip), vehicle: water) 167 % of control.

For `COc1cc2c(cc1O)c[n+](C)c1c3cc(OC)c(OC)cc3ccc21`, the T/C (dose: 7.8 mg/kg/injection, schedule: Q01DX009 (ip), vehicle: other) is 107 % of control; the T/C (dose: 31.3 mg/kg/injection, schedule: Q01DX009 (ip), vehicle: other) is 122 % of control; the T/C (dose: 62.5 mg/kg/injection, schedule: Q01DX009 (ip), vehicle: other) is 120 % of control; the T/C (dose: 125.0 mg/kg/injection, schedule: Q01DX009 (ip), vehicle: other) was 120 % of control.

Regarding `CCOC(=O)c1ccc(N(CC(O)CN)S(=O)(=O)c2ccc(C)cc2)cc1` (stereo unspecified), the T/C was 102 % of control (dose: 15.0 mg/kg/injection, schedule: Q01DX005 (ip), vehicle: saline with Tween-80); 101 % of control (dose: 30.0 mg/kg/injection, schedule: Q01DX005 (ip), vehicle: saline with Tween-80); 101 % of control and 92 % of control under setting [11].
